In one experiment the test system is LLC tumors. Kind of experiment: Subcutaneous LLC tumor model. In kind it is in vivo, mouse. The conditions noted are these: BVT948 10 mg/kg or Cisplatin 5 mg/kg intraperitoneal, treatment from 50 mm^3. On the procedure:
(§1) Tumor implantation, treatment and harvest. For animal studies, 1*10^5 B16F10 luciferase-tagged melanoma cells, 1*10^6 GEMM6 melanoma cells or 2*10^6 LCC cells were implanted subcutaneously into C57BL/6J mice (randomized, both males and females, 000664 The Jackson laboratory). When indicated, mice received intraperitoneal injections 7 days after implantation with 100 μl of 5 mg/kg cisplatin (Tocris), 100 μl of 10 mg/kg BVT948 (Tocris) or 100 μl of 30 mg/kg of vemurafenib. 5 mice were used per experimental group and tumors were harvested when they reached 1.5 cm in any direction.
(§2) Immunohistochemistry analysis. Immunohistochemistry assay was carried out in formalin-fixed, paraffin-embedded 4 μm sections using primary antibodies against F4:80 (AbD Serotec), CD11b (Abcam), CD4 (eBioscience) or CD8a (eBioscience) on a Discovery Ultra Automated IHC staining system (Ventana). Sections were then imaged using a ScanScope XT microscope (Aperio) and quantified using Aperio software.

A further experiment concerns B16F10 tumors. Kind of experiment: Subcutaneous B16F10 melanoma tumor model. Format: in vivo, mouse. To be noted: BVT948 10 mg/kg or Cisplatin 5 mg/kg intraperitoneal, treatment from 50 mm^3. The method, then: as §1, §2
Experiment [1] deals with macrophage M1 associated gene expression. In words: Cisplatin treated transwell co-culture of macrophages and B16F10 cells, qRT-PCR. In kind it is cell-based, mouse. The method, then:
(§3) Peritoneal macrophage isolation and culture. Peritoneal macrophages were done as described previously(65) from 8-week-old C57BL/6J mice (randomized, both male and female). PBS (Gibco) was injected in the mural peritoneal cavity to release the macrophages. After recovering, cells were centrifuged at 1200 rpm for 5 minutes, resuspended in DMEM high glucose, 10% FBS, 1% penicillin-streptomycin (Gibco) and plated. 2 hours after the last step, cells were washed with PBS and maintained in DMEM/F12 supplemented with 10% FBS, 1% penicillin-streptomycin and 20 ng/ml of M-CSF (Prospec) for 2 days. Macrophages were treated for 24 hours with 50 ng/ml LPS (Sigma Millipore), 100 ng/ml IFNγ (BioLegend), 300 ng/ml PAM3CSK4 (InvivoGen), 107 cells/ml heat killed Listeria Monocytogenes (HKLM) (InvivoGen), 100 ng/ml Flagellin Salmonella typhimurium standard (InvivoGen), 10 ng/ml FSL1 (InvivoGen), 2.5 ug/ml ssRNA40 (InvivoGen), 2.5 ug/ml CL 075 (Tocris), 5 μM ODN1826, 50 μM Fludarabine (SelleckChem), 50 nM Momelotinib (SelleckChem), 5 μM BVT948 (Sigma Millipore), 200 μM PTP1b inhibitor III (Santa Cruz Biotechnology Inc.), 5 μM NSC87877 (Santa Cruz Biotechnology Inc.), 50 μM PTP1b inhibitor (Cayman), 1 mM PTP Inhibitor IV (Santa Cruz Biotechnology Inc.), 1 μM TSC401, 300 nM UNC2371 (SelleckChem), 300 nM BMS777607 (SelleckChem), 300 nM LDC1267 (SelleckChem) 1.5 μg/ml recombinant Pros1 (R&D systems), 200 ng/ml recombinant Gas6 (R&D systems) or 10-500 μM Cisplatin (Tocris). All components were added as described in the text. Cell culture. B16F10 (CRL-6475, ATCC), Lewis lung carcinoma (LLC) (CRL-1642, ATCC), KPC2713 (Yuliya Pylayeva-Gupta laboratory, UNC) and MDA-MB-231 (HTB-26, ATCC) were cultured in DMEM high glucose supplemented with 10% FBS, 1% penicillin-streptomycin (Gibco). GEMM6 (Dr. Alisha Holtzhausen, UNC), KPPC4662 (Dr. Yuliya Pylayeva-Gupta laboratory, UNC), KPPC4548 (Yuliya Pylayeva-Gupta laboratory, UNC) and E0771 (CRL-3461, ATCC) were maintained in RPMI 1640 supplemented with 10% PBS, 1% penicillin/streptomycin (Gibco) while PyMT cells were cultured in Ham's F-12K with 10% FBS, 1% penicillin-streptomycin (Gibco). Transwell assays were performed in 0.4 μm polyester membrane insert culture plates (Corning). 500,000 cells of each line were plated per well in DMEM/F12 supplemented with 10% FBS, 1% penicillin-streptomycin and 20 ng/ml of M-CSF for culture with mouse macrophages. SC cells (CRL-9855, ATCC) were cultured in IMDM with 10% FBS and 1% penicillin-streptomycin (Gibco). In transwell experiments with the SC cell line, cancer cells were also resuspended in IMDM media.
qRT-PCR. RNA was isolated using the RNeasy Plus Mini Kit (Quiagen) and cDNA was prepared using the Reverse Transcription System (Promega) with one-hour reverse transcription process. qRT-PCR was done using the PowerUp™ SYBR™ Green Master Mix (Applied Biosystems) on a QuantStudio Pro Real-time PCR system (Applied Biosystems) with a 95° C. pretreatment of 10 min, 50 cycles of 95° C., 10 sec and 60° C., 1 min and melt curve at the end. Analysis was performed with the 2^−ΔΔCT method(136).

The subject of experiment [2] is Stat1 and MyD88 expression in pro-inflammatory macrophages. Kind of experiment: Stat1 or Jak1/2 inhibitor treatment of pro-inflammatory macrophages, qRT-PCR. In kind it is cell-based, mouse. The conditions noted are these: Fludarabine 50 μM, Momelotinib 50 nM. On the procedure:
(§4) Peritoneal macrophage isolation and culture. Peritoneal macrophages were done as described previously(65) from 8-week-old C57BL/6J mice (randomized, both male and female). PBS (Gibco) was injected in the mural peritoneal cavity to release the macrophages. After recovering, cells were centrifuged at 1200 rpm for 5 minutes, resuspended in DMEM high glucose, 10% FBS, 1% penicillin-streptomycin (Gibco) and plated. 2 hours after the last step, cells were washed with PBS and maintained in DMEM/F12 supplemented with 10% FBS, 1% penicillin-streptomycin and 20 ng/ml of M-CSF (Prospec) for 2 days. […]
A general note: Quantitative PCR measures a nucleic acid by following its amplification.

For experiment [3], the system named is Stat1 phosphorylation and MyD88 in macrophages. In words: Transwell co-culture of M1 induced macrophages with tumor cells plus inhibitors (Western blot, qRT-PCR). Format: cell-based, mouse. The conditions noted are these: 24 hours. On the procedure: as §3, with “GEMM6 (Dr. Alisha Holtzhausen, UNC), KPPC4662 (Dr. Yuliya Pylayeva-Gupta laboratory, UNC), KPPC4548 (Yuliya Pylayeva-Gupta laboratory, UNC) and E0771 (CRL-3461, ATCC) were maintained in RPMI 1640 supplemented with 10% PBS, 1% penicillin/streptomycin (Gibco) while PyMT cells were cultured in Ham's F-12K with 10% FBS, 1% penicillin-streptomycin (Gibco). Transwell assays were performed in 0.4 μm polyester membrane insert culture plates (Corning). 500,000 cells of each line were plated per well in DMEM/F12 supplemented with 10% FBS, 1% penicillin-streptomycin and 20 ng/ml of M-CSF for culture with mouse macrophages. SC cells (CRL-9855, ATCC) were cultured in IMDM with 10% FBS and 1% penicillin-streptomycin (Gibco). In transwell experiments with the SC cell line, cancer cells were also resuspended in IMDM media.” left out
A general note: A western blot detects proteins with antibodies after separation by electrophoresis.

The test system of experiment [4] is MyD88 expression in peritoneal macrophages. Kind of experiment: Individual TLR agonism of macrophages, MyD88 by qRT-PCR. Format: cell-based, mouse. To be noted: 24 hours. The method, then: as §4
Experiment [5] relates to macrophage MyD88 expression. In words: Exogenous TAM ligand addition to pro-inflammatory macrophages, MyD88 qRT-PCR. Format: cell-based, mouse. To be noted: Pros1 1.5 ug/ml, Gas6 200 ng/ml, compared with transwell co-cultured B16F10 cells. On the procedure:
as §3, with “GEMM6 (Dr. Alisha Holtzhausen, UNC), KPPC4662 (Dr. Yuliya Pylayeva-Gupta laboratory, UNC), KPPC4548 (Yuliya Pylayeva-Gupta laboratory, UNC) and E0771 (CRL-3461, ATCC) were maintained in RPMI 1640 supplemented with 10% PBS, 1% penicillin/streptomycin (Gibco) while PyMT cells were cultured in Ham's F-12K with 10% FBS, 1% penicillin-streptomycin (Gibco). Transwell assays were performed in 0.4 μm polyester membrane insert culture plates (Corning). 500,000 cells of each line were plated per well in DMEM/F12 supplemented with 10% FBS, 1% penicillin-streptomycin and 20 ng/ml of M-CSF for culture with mouse macrophages. SC cells (CRL-9855, ATCC) were cultured in IMDM with 10% FBS and 1% penicillin-streptomycin (Gibco). In transwell experiments with the SC cell line, cancer cells were also resuspended in IMDM media.” left out

The results in this text go back to patent US20250041272A1, “COMPOSITIONS AND METHODS FOR TREATING CANCER VIA PTP1B INHIBITION” (priority 2021, published 2025).

With `N.N.[Cl][Pt][Cl]` [Cisplatin], in the experiment with LLC tumors, the “LLC tumor growth reduction, monotherapy” value was 30%. Further, the “B16F10 tumor growth, monotherapy vs vehicle” value in the experiment on B16F10 tumors is given as “did not significantly reduce”. For the same molecule, in experiment [1] (25 μM Cisplatin, co-cultured with B16F10 tumor cells, no PTP1b inhibitor), the “activation of Mer deficient macrophages” value is listed as “macrophages could be activated even in the presence of tumor cells”. Moreover, the “M1 associated gene expression, Cisplatin alone” value in experiment [1] (even at 500 μM Cisplatin, wildtype macrophages with B16F10 cells) is “did not lead to substantially increased M1 associated gene expression”. In addition, the “M1 gene expression in MyD88 knockout macrophages” value in experiment [1] (increasing Cisplatin, with or without BVT948) is “Neither increasing concentrations of Cisplatin, nor PTP1 b inhibition, were able to restore M1 gene expression”.

For `N#CCNC(=O)c1ccc(-c2ccnc(Nc3ccc(N4CCOCC4)cc3)n2)cc1` [Momelotinib], in experiment [2], the Stat1 expression entry is reported as “did not significantly alter”. Moreover, the MyD88 expression entry in experiment [2] (compared with B16F10 transwell co-culture) is listed as “did not significantly alter”.

For the molecule `O=S(=O)(O)c1ccc2cc(N=Nc3cc(S(=O)(=O)O)c4cccnc4c3O)ccc2c1` [NSC87877], the “Stat1 phosphorylation at Tyrosine 701 and Serine 727” value in experiment [3] is listed as “increased”. For `CCc1oc2cc(S(=O)(=O)Nc3ccc(S(=O)(=O)Nc4nccs4)cc3)ccc2c1C(=O)c1cc(Br)c(O)c(Br)c1` [PTP inhibitor], in experiment [3], the “Stat1 phosphorylation at Tyrosine 701 and Serine 727” value is reported as “increased”. Consider FSL-1, for which the “MyD88 expression upon individual TLR agonism” value in experiment [4] is reported as “upregulation of MyD88”.

As for Pam3CSK4, in experiment [4], the “MyD88 expression upon individual TLR agonism” value was “upregulation of MyD88”. With “Pros1: recombinant murine Pros1, TAM family ligand (R&D systems)”, the “macrophage MyD88 expression after exogenous ligand addition” value in experiment [5] is listed as “reduced comparably to that of tumor cell secretions”; in experiment [5] (listed as Recombinant murine Pros1) it was “suppresses macrophage MyD88 expression similarly to transwell co-culture with B16F10 cells”.

B1: Gas6: recombinant Gas6, TAM family ligand (R&D systems) (protein, UniProt Q14393 31-678, looked up)
Growth arrest-specific …: ALLPAREATQFLRPRQRRAFQVFEEAKQGHLERECVEELCSREEAREVFENDPETDYFYPRYLDCINKYGSPYTKNSGFATCVQNLPDQCTPNPCDRKGTQACQDLMGNFFCLCKAGWGGRLCDKDVNECSQENGGCLQICHNKPGSFHCSCHSGFELSSDGRTCQDIDECADSEACGEARCKNLPGSYSCLCDEGFAYSSQEKACRDVDECLQGRCEQVCVNSPGSYTCHCDGRGGLKLSQDMDTCEDILPCVPFSVAKSVKSLYLGRMFSGTPVIRLRFKRLQPTRLVAEFDFRTFDPEGILLFAGGHQDSTWIVLALRAGRLELQLRYNGVGRVTSSGPVINHGMWQTISVEELARNLVIKVNRDAVMKIAVAGDLFQPERGLYHLNLTVGGIPFHEKDLVQPINPRLDGCMRSWNWLNGEDTTIQETVKVNTRMQCFSVTERGSFYPGSGFAFYSLDYMRTPLDVGTESTWEVEVVAHIRPAADTGVLFALWAPDLRAVPLSVALVDYHSTKKLKKQLVVLAVEHTALALMEIKVCDGQEHVVTVSLRDGEATLEVDGTRGQSEVSAAQLQERLAVLERHLRSPVLTFAGGLPDVPVTSAPVTAFYRGCMTLEVNRRLLDLDEAAYKHSDITAHSCPPVEPAAA
For the molecule B1, the “macrophage MyD88 expression after exogenous ligand addition” value in experiment [5] is “limited effect”.
